Results on 28 compounds are retold here after ChEMBL document CHEMBL1177790, “Activity of substituted thiophene sulfonamides against malarial and mammalian cyclin dependent protein kinases” (Bioorg Med Chem Lett, 2010).

Data set [1] concerns the target T1, Protein kinase Pfmrk (Plasmodium falciparum, UniProt P90584).
T1 sequence (P90584 whole entry): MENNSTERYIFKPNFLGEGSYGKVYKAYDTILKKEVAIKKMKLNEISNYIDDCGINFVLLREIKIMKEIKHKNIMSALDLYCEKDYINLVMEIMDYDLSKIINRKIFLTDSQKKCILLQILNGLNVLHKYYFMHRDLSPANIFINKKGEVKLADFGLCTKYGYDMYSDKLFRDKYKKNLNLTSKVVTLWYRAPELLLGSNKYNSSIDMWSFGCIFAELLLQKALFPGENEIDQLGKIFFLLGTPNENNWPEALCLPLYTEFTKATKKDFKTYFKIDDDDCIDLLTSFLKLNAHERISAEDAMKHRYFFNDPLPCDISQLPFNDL
The data set is described as follows: Inhibition of His6x-tagged Plasmodium falciparum Pfmrk expressed in Escherichia coli by microtiter plate scintillation counting.

For data set [2], the system named is RAW264.7. Briefly: Cytotoxicity against mouse RAW264.7 cells after 24 hrs by MTT assay. As to conditions: RAW264.7, 24 h. The class given is cell-based.
The subject of data set [3] is DU-145. Briefly: Cytotoxicity against human DU145 cells after 24 hrs by MTT assay. In kind it is functional, cell-based. As to conditions: DU-145, 24 h.
Data set [4] concerns LoVo. Briefly: Cytotoxicity against human LoVo cells after 24 hrs by MTT assay. The class given is functional, cell-based.
Data set [5] in a line: Cytotoxicity against human Hs578 cells after 24 hrs by MTT assay. The class given is functional, cell-based. As to conditions: Hs578, 24 h.
The subject of data set [6] is MCF7. Briefly: Cytotoxicity against human MCF7 cells after 24 hrs by MTT assay. In kind it is functional, cell-based. As to conditions: MCF7, 24 h.
Data set [7] relates to Plasmodium falciparum. The data set is described as follows: Antimalarial activity against chloroquine-resistant Plasmodium falciparum W2 assessed as inhibition of [3H]hypoxanthine incorporation after 24 hrs by microtiter plate scintillation counting. In kind it is functional, organism-based.
A short description of data set [8]: Therapeutic index, IC50 for Plasmodium falciparum W2 to IC50 for mice (Mus musculus) RAW264.7 cells.
Data set [9] has as its target Cyclin-dependent kinase 7/ cyclin H (Homo sapiens, UniProt P50613). Briefly: Inhibition of human CDK7/Cyclin H/MAT1. In kind it is protein-complex assay.
In data set [10] the target is CDK6/cyclin D1 (Homo sapiens, UniProt Q00534). The data set is described as follows: Inhibition of human CDK6/Cyclin D1. In kind it is protein-complex assay.
Chain of CDK6/cyclin D1 (P24385 whole entry): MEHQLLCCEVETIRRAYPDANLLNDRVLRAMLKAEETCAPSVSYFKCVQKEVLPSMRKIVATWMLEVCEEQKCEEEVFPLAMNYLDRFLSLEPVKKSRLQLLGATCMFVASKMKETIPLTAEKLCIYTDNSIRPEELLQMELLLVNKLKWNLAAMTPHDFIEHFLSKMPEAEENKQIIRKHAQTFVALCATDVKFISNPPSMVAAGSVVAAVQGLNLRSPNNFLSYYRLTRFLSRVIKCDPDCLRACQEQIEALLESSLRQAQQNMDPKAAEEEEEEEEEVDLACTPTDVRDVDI
Chain of CDK6/cyclin D1 (Q00534 whole entry): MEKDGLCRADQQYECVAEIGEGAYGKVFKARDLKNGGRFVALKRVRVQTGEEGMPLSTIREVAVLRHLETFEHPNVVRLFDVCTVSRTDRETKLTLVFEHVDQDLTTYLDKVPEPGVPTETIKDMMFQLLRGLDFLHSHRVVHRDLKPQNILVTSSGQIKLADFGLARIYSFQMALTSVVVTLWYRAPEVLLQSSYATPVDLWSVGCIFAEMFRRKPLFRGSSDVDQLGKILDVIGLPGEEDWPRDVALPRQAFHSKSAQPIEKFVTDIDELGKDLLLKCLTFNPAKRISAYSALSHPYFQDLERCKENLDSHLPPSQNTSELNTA
In data set [11] the target is Cyclin-dependent kinase 1/cyclin B1 (Homo sapiens, UniProt P06493). The data set is described as follows: Inhibition of human CDK1/cyclin B. The class given is protein-complex assay.
Chain of Cyclin-dependent kinase 1/cyclin B1 (P06493 whole entry): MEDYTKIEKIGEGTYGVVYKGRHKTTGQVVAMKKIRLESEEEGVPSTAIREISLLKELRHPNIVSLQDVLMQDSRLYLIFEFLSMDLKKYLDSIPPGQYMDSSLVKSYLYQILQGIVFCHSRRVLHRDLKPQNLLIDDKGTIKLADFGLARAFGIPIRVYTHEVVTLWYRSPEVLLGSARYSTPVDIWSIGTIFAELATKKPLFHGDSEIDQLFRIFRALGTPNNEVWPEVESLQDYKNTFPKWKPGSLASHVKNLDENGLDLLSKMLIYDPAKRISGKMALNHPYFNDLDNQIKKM
Chain of Cyclin-dependent kinase 1/cyclin B1 (P14635 whole entry, further chain): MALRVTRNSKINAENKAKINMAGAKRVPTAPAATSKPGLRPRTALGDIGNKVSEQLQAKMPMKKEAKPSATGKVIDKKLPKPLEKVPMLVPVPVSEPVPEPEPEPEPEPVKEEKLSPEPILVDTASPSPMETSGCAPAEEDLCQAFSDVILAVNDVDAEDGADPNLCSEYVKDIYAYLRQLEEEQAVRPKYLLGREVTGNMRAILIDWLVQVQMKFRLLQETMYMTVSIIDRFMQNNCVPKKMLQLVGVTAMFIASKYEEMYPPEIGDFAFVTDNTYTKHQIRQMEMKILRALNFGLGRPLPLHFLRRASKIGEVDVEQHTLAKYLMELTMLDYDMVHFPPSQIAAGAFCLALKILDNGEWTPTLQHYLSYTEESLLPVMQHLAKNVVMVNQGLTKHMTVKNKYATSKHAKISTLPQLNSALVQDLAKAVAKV
Data set [12] has as its target Cyclin-dependent kinase 2/cyclin A (Homo sapiens, UniProt P24941). The data set is described as follows: Inhibition of human CDK2/Cyclin A. In kind it is protein-complex assay.

Chain of Cyclin-dependent kinase 7/ cyclin H (P51946 whole entry): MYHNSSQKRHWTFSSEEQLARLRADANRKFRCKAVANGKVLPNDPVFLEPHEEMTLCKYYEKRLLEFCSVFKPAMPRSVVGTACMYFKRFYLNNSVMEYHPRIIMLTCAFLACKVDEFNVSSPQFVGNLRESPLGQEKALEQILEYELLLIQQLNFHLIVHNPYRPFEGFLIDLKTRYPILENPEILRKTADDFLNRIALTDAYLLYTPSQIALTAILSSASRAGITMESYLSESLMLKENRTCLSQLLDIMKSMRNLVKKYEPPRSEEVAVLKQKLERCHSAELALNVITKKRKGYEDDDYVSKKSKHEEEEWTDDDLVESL
Chain of Cyclin-dependent kinase 7/ cyclin H (P50613 whole entry): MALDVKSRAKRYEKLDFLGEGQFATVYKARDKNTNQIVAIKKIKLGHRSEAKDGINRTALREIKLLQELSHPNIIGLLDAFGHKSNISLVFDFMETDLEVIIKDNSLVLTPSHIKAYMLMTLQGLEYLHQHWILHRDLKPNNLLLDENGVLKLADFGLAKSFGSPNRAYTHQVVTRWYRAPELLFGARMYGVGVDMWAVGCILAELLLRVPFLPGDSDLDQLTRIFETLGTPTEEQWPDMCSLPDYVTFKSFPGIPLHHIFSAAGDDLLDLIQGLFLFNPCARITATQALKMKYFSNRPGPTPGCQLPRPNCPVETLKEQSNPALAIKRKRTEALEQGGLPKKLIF

`COc1ccc(S(=O)(=O)Nc2cccc(C(F)(F)F)c2)cc1` came in with an IC50 in data set [1] of 48.4 µM.

Take `O=C(CBr)N(c1ccc(Cl)cc1)S(=O)(=O)c1cc(Cl)sc1Cl`: in data set [1], the IC50 came to 0.8 µM.

As to `O=C1Cc2c([nH]c3ccc([N+](=O)[O-])cc23)-c2ccccc2N1` [ALSTERPAULLONE], the IC50 was 2.2 µM in data set [2]; 1.1 µM in [3]; below 1 µM in data set [4]; 1.9 µM in [5]; 2.7 µM in data set [6].

On to `Cc1cc(C)c(NS(=O)(=O)c2ccc(Br)cc2)c(C)c1NS(=O)(=O)c1ccc(Br)cc1`, for which the IC50 in data set [1] is 50.2 µM.

`O=S(=O)(Nc1ccc(Cl)cc1SC(Cl)(Cl)Cl)c1cc(Cl)sc1Cl` showed an IC50 in data set [1] of 19.7 µM.

For `OC(c1cc(C(F)(F)F)nc2c(C(F)(F)F)cccc12)C1CCCCN1` (stereo not drawn) [MEFLOQUINE], the half-inhibitory concentration (IC50) was determined as 0.1 µM in [7]; 6.5 µM in [2]; 14.4 µM in data set [3]; 7.9 µM in data set [4]; 12.1 µM in data set [5]; 10.6 µM in data set [6]. The selectivity ratio in data set [8] is 65.

Regarding `Cc1ccc(N(C(=O)C(Cl)Cl)S(=O)(=O)c2cc(Cl)sc2Cl)cc1`, the IC50 in [1] was determined as 127 µM.

Compound `Cc1ccc(NS(=O)(=O)c2ccc(Br)cc2)cc1Cl` gave an IC50 in data set [1] of 15.9 µM.

For `O=C(NNC(=O)c1ccccc1F)c1ccc2ccccc2c1`, the midpoint of inhibition in [1], the IC50, lay at 0.4 µM.

`Cc1ccc(N(C(=O)CCl)S(=O)(=O)c2c(Cl)sc(Cl)c2Cl)cc1` had an IC50 in data set [1] of 40.1 µM.

In data set [1], `NS(=O)(=O)c1cc([N+](=O)[O-])c(Cl)s1` registered a half-maximal inhibitory concentration (IC50) of 17.4 µM.

Regarding `O=C(CBr)N(c1ccccc1)S(=O)(=O)c1cc(Cl)sc1Cl`, the IC50 in data set [1] was 0.6 µM; in data set [9] it was 33.4 µM; in data set [10] it was 34.9 µM; in data set [11] it was 21.5 µM; in data set [12], 28.5 µM; in data set [7], 23.3 µM. Moreover, the IC50 in [2] worked out at 89.5 µM; in [3] it was 91 µM; in [4] it was 71.6 µM; in data set [5] it was 51.1 µM; in data set [6], 62 µM.

With `Cc1ccc(NS(=O)(=O)c2cc(Cl)sc2Cl)cc1`, the half-maximal inhibitory concentration (IC50) in [1] was determined as 0.6 µM; in [9], 0.8 µM; in [10], 51.3 µM; in data set [11] it was 49.3 µM; in data set [12], 31.4 µM; in [7], 31 µM. The 50% inhibitory concentration (IC50) in data set [2] turned out to be 74.7 µM; in [3] it was 81.1 µM; in data set [4], 69.3 µM; in [5], 40.2 µM; in [6] it was 66.1 µM.

Regarding `O=S(=O)(Nc1cc(Cl)cc(Cl)c1)c1cc(Cl)sc1Cl`, the IC50 in [1] was determined as 333 µM.

In the case of `Cc1ccc(N(SC(Cl)(Cl)Cl)S(=O)(=O)c2cc(Cl)sc2Cl)cc1`, the 50% inhibitory concentration (IC50) was 0.3 µM in data set [1]; 0.7 µM in data set [9]; 18 µM in data set [10]; 10.5 µM in data set [11]; 11.5 µM in data set [12]; 21.2 µM in data set [7]. In addition, the IC50 in [2] was determined as 39.3 µM; in data set [3], 53 µM; in data set [4], 70.3 µM; in [5], 24.9 µM; in data set [6], 30.1 µM.

The compound `O=S(=O)(Nc1ccc(Cl)cc1)c1c(Cl)sc(Cl)c1Cl` gave an IC50 in data set [1] of 31.5 µM.

On to `O=S(=O)(Nc1cccc(C(F)(F)F)c1)c1ccc(Cl)cc1`, for which the half-maximal inhibitory concentration (IC50) in data set [1] was 13.1 µM.

As for `O=S(=O)(Nc1cccc(C(F)(F)F)c1)c1cc(Cl)c(Cl)cc1Cl`, the half-inhibitory concentration (IC50) came to 0.6 µM in data set [1]; 0.2 µM in data set [9]; 58.8 µM in [10]; 0.1 µM in data set [11]; 10 µM in data set [12]; 24.7 µM in data set [7]. Also, the IC50 was determined as 90.4 µM in data set [2]; 44.2 µM in [3]; 65.1 µM in data set [4]; 55.1 µM in data set [5]; 63.8 µM in data set [6].

`O=S(=O)(c1cc(Cl)sc1Cl)N(SC(Cl)(Cl)Cl)c1ccccc1` displayed an IC50 in data set [1] of 29.7 µM.

As to `O=S(=O)(Nc1ccccc1)c1cc(Cl)sc1Cl`, half-maximal inhibition in data set [1] (IC50) was put at 14.9 µM.

In the case of `O=S(=O)(Nc1ccc(C(F)(F)F)cc1)c1ccc(C(F)(F)F)cc1`, in [1], the midpoint of inhibition, the IC50, lay at 16.5 µM.

As to `Cc1ccc(Cl)cc1S(=O)(=O)Nc1ccc(Cl)c(Cl)c1`, the half-maximal inhibitory concentration (IC50) is 15.1 µM in data set [1]; 0.4 µM in data set [9]; 110 µM in data set [10]; 0.8 µM in data set [11]; 10.5 µM in [12]; 17 µM in [7]. Besides, the IC50 in data set [2] was 76.6 µM; in data set [3], 45.4 µM; in data set [4] it was 55 µM; in data set [5] it was 54 µM; in data set [6], 57.3 µM.

In data set [1], `Cc1cc(Cl)ccc1NS(=O)(=O)c1cc(Cl)ccc1Cl` displayed an IC50 of 11 µM.

As to `N#CC(NCC(O)c1ccccc1)c1ccc(Cl)c(Cl)c1` (stereo not drawn), in data set [1], the half-maximal inhibitory concentration (IC50) was 0.6 µM.

As to `O=C1Nc2ccccc2/C1=C1/Nc2ccccc2C1=O` [INDIRUBIN], the IC50 turned out to be 1.1 µM in [7]; 6.1 µM in data set [2]; 6.8 µM in data set [3]; 2.2 µM in data set [4]; 6.9 µM in data set [5]; 6.7 µM in data set [6].

The compound `Cc1cccc(C)c1N(C(=O)CCl)S(=O)(=O)c1cc(Cl)sc1Cl` had an IC50 in data set [1] of 20.7 µM.

On to `Cc1ccc(Cl)cc1NS(=O)(=O)c1cc(Cl)ccc1Cl`, for which, in data set [1], the IC50 came to 45.4 µM.

`Cc1ccccc1NC(=O)NC(=O)c1ccccc1Cl`: in [1], the IC50 was determined as 0.2 µM.
